Data as given in PMC7076013 (Scientific Reports, 2020).

How the values were obtained:
[1] = test system: SW620, human colon carcinoma; assay: MTT cell viability, SW620; type: cell-based; conditions: 48 h
Description: (§1) Both melanoma and colon cancer are tumor types tightly connected with inflammation, while the expression of COX-2 in the selected cell lines was highly variable. Since a lot of discrepancies were found in the literature concerning the expression of this enzyme[5],[48]–[53], both COX-1 and COX-2 expression was analyzed by Western blot. […] The cells were treated with a wide range of doses of 4a–c, 5, and 6 for 48 h and cell viability was determined by MTT (3-(4,5-dimethylthiazol-2-yl)-2,5-diphenyltetrazolium bromide) and CV (crystal violet) assays. The obtained IC50 values were similar for both assays (Table 1).
Reagents were obtained from Sigma (St. Louis, MO) unless indicated otherwise. […]
S ystems, Minneapolis, MN USA). […] After being detached b y tr ypsinization, cells were seeded in defined number as follows: 2.5 × 10^3 cells/well in 96-well plates for viability assessment and 2 × 10^4 cells/well in 24-well plates for flow cytometry. […]
(§2) Before treatment, non- adherent cells were removed. Compounds 4a- c, 5 and 6 were dissolved in DMSO and stored at −20 °C for a m onth. Working solutions were freshl y prepared in 10% FCS-RPMI-1640. Controls were treated with culture medium containing the equivalent […]
(§3) 3.2. Cell viability tests.
(§4) The number of viable cel ls in culture was estimated by the MTT (3-(4,5- dimethylthiazol- 2-yl ) - 2,5- diphenyltetrazolium bromide) and CV (crystal violet) tests. Cells were incubated in the presence of compounds 4a- c, 5 and 6 for 48 h, then the viability was measured as described.4 […]
(§5) The results were ex pressed as a p er centage of a v alue obtained for the untr eated control cells that was arbitrarily set to be 100%. A non- linear regression analysis of obtained results was done b y using Gr aphPad Prism software to calculat e IC50 values. […]

human recombinant COX-2 = molecular target: T1, human recombinant COX-2 (Homo sapiens, UniProt P35354); assay: COX Fluorescent Inhibitor Screening Assay, COX-2; type: biochemical; conditions: human recombinant COX-2, Cayman kit 700100
T1 construct: purchased Cayman Chemical Item No. 700100 (assay kit)
T1 sequence (P35354 18-604): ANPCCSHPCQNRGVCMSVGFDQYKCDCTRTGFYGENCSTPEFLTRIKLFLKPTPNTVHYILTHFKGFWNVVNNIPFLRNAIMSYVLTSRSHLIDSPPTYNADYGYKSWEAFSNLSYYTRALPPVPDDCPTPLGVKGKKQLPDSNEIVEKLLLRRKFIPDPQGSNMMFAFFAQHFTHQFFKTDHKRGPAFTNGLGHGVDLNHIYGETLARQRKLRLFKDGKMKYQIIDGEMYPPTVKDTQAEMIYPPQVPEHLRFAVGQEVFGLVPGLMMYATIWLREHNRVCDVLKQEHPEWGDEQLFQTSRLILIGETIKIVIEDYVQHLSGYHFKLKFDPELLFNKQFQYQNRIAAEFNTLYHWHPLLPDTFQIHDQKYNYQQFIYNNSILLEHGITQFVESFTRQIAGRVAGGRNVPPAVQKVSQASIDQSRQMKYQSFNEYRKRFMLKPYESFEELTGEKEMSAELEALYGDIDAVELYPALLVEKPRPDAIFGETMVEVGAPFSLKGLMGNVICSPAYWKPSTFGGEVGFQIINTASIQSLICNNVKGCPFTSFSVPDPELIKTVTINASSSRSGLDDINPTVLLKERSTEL
Description: The synthesized compounds were tested in vitro for their potential to inhibit ovine COX-1 and human recombinant COX-2.
*All compounds were measured with the Cytation 5 plate reader and the "COX Fluorescent Inhibitor […]
chemi cals, USA) " according to the manufacturer's
Error bars indicate standard error mean (SEM) obtained from two measurements at each concentration.
(1 picture or pasted object on this page, not shown here)

[2] = test system: peritoneal resident macrophages; assay: CV cytotoxicity for isolated macrophages; type: cell-based, C57BL/6 mice; conditions: crystal violet (CV) test
Description: (§6) Reagents were obtained from Sigma (St. Louis, MO) unless indicated otherwise. Annexin V - FITC (AnnV) was acquired from Biotium (Hayward, CA) and Apostat from R&D (R&D S ystems, Minneapolis, MN USA). […] After being detached b y tr ypsinization, cells were seeded in defined number as follows: 2.5 × 10^3 cells/well in 96-well plates for viability assessment and 2 × 10^4 cells/well in 24-well plates for flow cytometry. Peritoneal resident […]
(§7) for Biolo gical Research “Siniša Stanković” b y peritoneal lav age with an ice- cold phosphate buffer solution (PBS). The handling of animals and protocol for obtaining cells is in agreement with the rules of the European Union and approved by the Institutional Animal Care and Use Committee at IBISS (02- 09/1 6). Cells were counted and seeded in 96-well plates and incubat ed overnight. Before treatment, non- adherent cells were removed. Compounds 4a- c, 5 and 6 were dissolved in DMSO and stored at −20 °C for a m onth. Working solutions were freshl y prepared in 10% FCS-RPMI-1640. Controls were treated with culture medium containing the equivalent […]
as §3, §4, §5
14 Ligand molecules and one […]
protocol published earlier.16
Cell line Selectivity index

[3] = test system: B16, mouse solid melanoma; assay: CV (crystal violet) cell viability, B16; type: cell-based; conditions: for IC50: 48 h; for Selectivity index B16: IC50 macrophages / IC50 cancer
Description: as §1, §6, §7, §3, §4, §5

[4] = test system: HCT116, human colon carcinoma; assay: CV (crystal violet) cell viability, HCT116; type: cell-based; conditions: for IC50: 48 h; for Selectivity index HCT116: IC50 macrophages / IC50 cancer
Description: as §1, §6, §7, §3, §4, §5

A375, human melanoma = assay: MTT cell viability, A375; type: cell-based; conditions: 48 h
Description: as §1
as §6, with “cytometry.” for “cytometry. Peritoneal resident”
as §2, with “Committee at IBISS (02- 09/1 6). Cells were counted and seeded in 96-well plates and incubat ed overnight. Before” for “Before”
as §3, §4, §5

[5] = test system: B16F10, mouse metastatic melanoma; assay: MTT cell viability, B16F10; type: cell-based; conditions: 48 h
Description: as §1
as §6, with “cytometry.” for “cytometry. Peritoneal resident”
as §2, with “Committee at IBISS (02- 09/1 6). Cells were counted and seeded in 96-well plates and incubat ed overnight. Before” for “Before”
as §3, §4, §5

| Substance | IC50 [1] [µM] | IC50 (human recombinant COX-2) [µM] | IC50 [2] [µM] | IC50 [3] [µM] | Selectivity index B16 [3] | IC50 [4] [µM] | Selectivity index HCT116 [4] | IC50 (A375, human melanoma) [µM] | IC50 [5] [µM] |
| --- | --- | --- | --- | --- | --- | --- | --- | --- | --- |
| 4-phenyl-3-(1,2-dicarba-closo-dodecaboranyl)furan-2(5 H)-one [Compound 4a] | 24.7 ± 0.42 | > 100 | 48.8 ± 1.2 | 30.6 ± 3.86 | 1.6 | 12.8 ± 0.5 | 3.8 | 20.2 ± 1.26 | 24.3 ± 2.01 |
| 4-[4-(methylnitrooxy)phenyl]-3-(1,2-dicarba-closo-dodecaboranyl)furan-2(5 H)-one [Compound 5] | 10.5 ± 0.14 | > 100 | 37.1 ± 1.73 | 11.5 ± 1.05 | 3.2 | 9.95 ± 0.95 | 3.7 | 4.25 ± 1.65 | 7.95 ± 3.06 |
| 4-[4-(methylsulfonyl)phenyl]-3-(1,2-dicarba-closo-dodecaboranyl)furan-2(5H)-one [Compound 4b] | 19.2 ± 0.78 | > 100 | 65.7 ± 5.75 | 22.2 ± 0.65 | 3.0 | 35.9 | 1.8 | 16.9 ± 1.35 | 27.3 ± 2.82 |
| 4-[4-(hydroxymethyl)phenyl]-3-(1,2-dicarba-closo-dodecaboranyl)furan-2(5H)-one [Compound 4c] | 35.7 ± 0.85 | > 100 | 66.2 ± 1.91 | 30.8 ± 3.22 | 2.1 | 19.2 ± 1.46 | 3.4 | 17.9 ± 1.26 | 28 ± 2.62 |
| R,S-7-(2-oxo-4-(4-sulfamoylphenyl)-2,5-dihydrofuran-3-yl)-7,8-dicarba-nido-dodeca-hydroundecaborate(–1) sodium [Compound 6] | > 50 | 69.6 | – | > 50 | – | > 50 | – | > 50 | > 50 |
